Data taken from the supplement of paper PMC10307832.

Tests used:
Assay in all cases: relative viability (nuclei count vs DMSO), 5 days (fraction); higher = more cells survive
[1] = compound: COc1ccc(-c2ccc3c(N4CCOC[C@@H]4C)nc(N4CCOC[C@@H]4C)nc3n2)cc1CO [AZD8055] + CC(C)C[C@H](NC(=O)[C@H](Cc1ccccc1)NC(=O)c1cnccn1)B(O)O [Bortezomib] (partner 0.002 µM)
Procedure, shortened: (§1)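 Cells from lung cancer lines were seeded into 1536-well plates and, one day later, dosed by pin tool. Treatments were either a single drug or a fixed dose of an anchor drug with five library-drug doses (not always all listed) in √10 steps. After 5 days, nuclei were stained in a one-step fixation (final 0.05% Triton X-100, 1% formaldehyde, 1 ug/ml Hoechst) and counted on 4× images, and relative viability is the treated-to-vehicle nuclei ratio, as the median of duplicate plates.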

[2] = compound: COc1ccc(-c2ccc3c(N4CCOC[C@@H]4C)nc(N4CCOC[C@@H]4C)nc3n2)cc1CO [AZD8055] + Cc1cc(Nc2cc(N3CCN(C)CC3)nc(Sc3ccc(NC(=O)C4CC4)cc3)n2)n[nH]1 [Tozasertib] (partner 0.1 µM)
Procedure, shortened: as §1

[3] = compound: COc1ccc(-c2ccc3c(N4CCOC[C@@H]4C)nc(N4CCOC[C@@H]4C)nc3n2)cc1CO [AZD8055] + Nc1ncn([C@H]2C[C@H](O)[C@@H](CO)O2)c(=O)n1 [Decitabine] (partner 2 µM)
Procedure, shortened: as §1

[4] = compound: COc1ccc(-c2ccc3c(N4CCOC[C@@H]4C)nc(N4CCOC[C@@H]4C)nc3n2)cc1CO [AZD8055] + NC(=O)Nc1cc(-c2cccc(F)c2)sc1C(=O)N[C@H]1CCCNC1 [AZD7762] (partner 0.2 µM)
Procedure, shortened: as §1

Cell Line	relative viability ([1]; first compound 0.01 µM)	relative viability ([1]; first compound 0.03162 µM)	relative viability ([1]; first compound 0.1 µM)	relative viability ([1]; first compound 0.3162 µM)	relative viability ([1]; first compound 1 µM)	relative viability ([2]; first compound 0.01 µM)	relative viability ([2]; first compound 0.03162 µM)	relative viability ([2]; first compound 0.1 µM)	relative viability ([2]; first compound 0.3162 µM)	relative viability ([2]; first compound 1 µM)	relative viability ([3]; first compound 0.01 µM)	relative viability ([3]; first compound 0.03162 µM)	relative viability ([3]; first compound 0.1 µM)	relative viability ([3]; first compound 0.3162 µM)	relative viability ([3]; first compound 1 µM)	relative viability ([4]; first compound 0.01 µM)	relative viability ([4]; first compound 0.03162 µM)	relative viability ([4]; first compound 0.1 µM)	relative viability ([4]; first compound 0.3162 µM)	relative viability ([4]; first compound 1 µM)
NCI-H661	1.09	0.619	0.758	0.396	0.295	0.329	0.376	0.376	0.356	0.359	0.502	0.482	0.449	0.359	0.331					
NCI-H1944						0.243	0.253	0.206	0.171	0.166	0.429	0.349	0.402	0.319	0.226	0.455	0.453	0.393	0.268	0.202
SW 1573	1.16	0.826	0.711	0.286	0.255	0.174	0.229	0.241	0.155	0.135	0.496	0.316	0.38	0.195	0.189					
COR-L 105	0.997	0.879	0.565	0.309	0.373	0.326	0.354	0.304	0.282	0.27	0.718	0.714	0.579	0.445	0.431					
EBC-1	0.485	0.502	0.301	0.236	0.224															
SK-LU-1	1.25	1.06	0.74	0.481	0.422	0.311	0.333	0.287	0.217	0.213	0.64	0.547	0.568	0.422	0.343					
NCI-H1648						0.461	0.702	0.34	0.232	0.226	0.422	0.504	0.42	0.277	0.261	0.708	0.804	0.639	0.413	0.261
SW 900						0.567	0.747	0.425	0.285	0.34	0.459	0.519	0.472	0.492	0.47	0.538	1.01	0.54	0.324	0.268
NCI-H520	0.623	0.185	0.16	0.127	0.147	0.381	0.305	0.213	0.251	0.192	0.486	0.242	0.229	0.176	0.165					
UMC-11	0.824	0.662	0.397	0.215	0.195	0.196	0.224	0.208	0.2	0.211	0.575	0.472	0.492	0.317	0.364					
NCI-H1792	0.93	0.771	0.827	0.173	0.189						0.585	0.38	0.338	0.093	0.124	0.589	0.291	0.21	0.0685	0.0707
NCI-H1793						0.299	0.219	0.154	0.136	0.145	0.435	0.219	0.207	0.181	0.221	0.379	0.264	0.197	0.145	0.127
NCI-H1563	0.862	0.808	0.758	0.599	0.773															
NCI-H1395						0.752	0.581	0.562	0.488	0.44	0.767	0.585	0.615	0.419	0.506	0.384	0.405	0.443	0.34	0.419
NCI-H1299	1.08	1.05	1.11	0.931	0.576															
NCI-H2228	0.877	0.507	0.315	0.198	0.29	0.222	0.296	0.155	0.143	0.158										
NCI-H2170						0.794	0.732	0.485	0.349	0.239	0.537	0.363	0.456	0.252	0.218	1.04	0.733	0.502	0.293	0.226
NCI-H522						0.571	0.544	0.421	0.421	0.425	0.737	0.591	0.619	0.527	0.462	0.847	0.799	0.647	0.532	0.569
A549											0.389	0.101	0.184	0.13	0.101					
NCI-H358						0.0893	0.121	0.102	0.0607	0.0813	0.22	0.24	0.177	0.134	0.113	0.701	0.557	0.523	0.308	0.203
CAL-12T	1.21	0.955	0.521	0.298	0.316	0.329	0.37	0.277	0.174	0.166						0.695	0.8	0.733	0.421	0.339
COR-L23	1.2	0.834	0.779	0.236	0.168	0.278	0.295	0.228	0.15	0.154	0.401	0.298	0.305	0.209	0.191					
IA-LM	0.706	0.363	0.114	0.106	0.0977															
NCI-H1650	0.299	0.182	0.215	0.208	0.214	0.366	0.446	0.422	0.534	0.252	0.535	0.432	0.439	0.384	0.358					
Calu-6	1.04	0.917	0.824	0.489	0.457															
